Source: ChEMBL document CHEMBL1136918, “Optimization of pyrazole inhibitors of Coactivator Associated Arginine Methyltransferase 1 (CARM1)” (Bioorg Med Chem Lett, 2009)

What was measured:
[1] = target: T1, Histone-arginine methyltransferase CARM1 (Homo sapiens, UniProt Q86X55); assay: Inhibition of CARM1 assessed as blockade of histone H3 methylation
T1 sequence (Q86X55 whole entry): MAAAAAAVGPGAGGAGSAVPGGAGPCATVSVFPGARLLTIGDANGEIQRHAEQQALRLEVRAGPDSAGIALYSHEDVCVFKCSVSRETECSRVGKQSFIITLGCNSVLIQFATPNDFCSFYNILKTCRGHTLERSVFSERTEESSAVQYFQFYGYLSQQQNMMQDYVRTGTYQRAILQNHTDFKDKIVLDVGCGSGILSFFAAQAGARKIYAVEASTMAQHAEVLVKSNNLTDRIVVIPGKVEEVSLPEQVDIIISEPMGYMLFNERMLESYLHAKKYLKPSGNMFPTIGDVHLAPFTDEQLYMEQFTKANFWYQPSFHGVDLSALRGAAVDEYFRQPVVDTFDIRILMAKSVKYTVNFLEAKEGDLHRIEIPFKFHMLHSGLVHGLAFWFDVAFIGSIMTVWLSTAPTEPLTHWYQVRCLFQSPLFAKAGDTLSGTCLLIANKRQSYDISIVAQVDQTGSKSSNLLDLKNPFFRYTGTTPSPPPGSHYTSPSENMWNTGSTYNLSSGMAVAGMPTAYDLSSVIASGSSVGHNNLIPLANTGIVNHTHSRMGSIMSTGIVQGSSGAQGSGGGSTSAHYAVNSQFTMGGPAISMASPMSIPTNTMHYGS

[2] = Membrane permeability by PAMPA; assay type: ADME; conditions: read-out: permeability
[3] = Toxicity against human hepatocytes; assay type: cell-based, Hepatocyte
Cytochrome P450 2C9 = Cytochrome P450 2C9 (Homo sapiens, UniProt P11712); assay: Inhibition of CYP2C9 expressed in human hepatocytes; assay type: ADME, cell-based, Hepatocyte
Cytochrome P450 2D6 = Cytochrome P450 2D6 (Homo sapiens, UniProt P10635); assay: Inhibition of CYP2D6 expressed in human hepatocytes; assay type: ADME, cell-based, Hepatocyte
[4] = target: Protein arginine N-methyltransferase 1 (Homo sapiens, UniProt Q99873); assay: Inhibition of PRMT1 by methylation assay
[5] = Metabolic stability in human microsomes per microgram of protein; assay type: ADME, Microsome
[6] = target: Protein arginine N-methyltransferase 3 (Homo sapiens, UniProt O60678); assay: Inhibition of PRMT3 by methylation assay
Cytochrome P450 3A4 = Cytochrome P450 3A4 (Homo sapiens, UniProt P08684); assay: Inhibition of CYP3A4 expressed in human hepatocytes; assay type: ADME, cell-based, Hepatocyte
[7] = target: T2, Nuclear receptor subfamily 1 group I member 2 (Homo sapiens, UniProt O75469); assay: Inhibition of human PXR
T2 sequence (O75469 whole entry): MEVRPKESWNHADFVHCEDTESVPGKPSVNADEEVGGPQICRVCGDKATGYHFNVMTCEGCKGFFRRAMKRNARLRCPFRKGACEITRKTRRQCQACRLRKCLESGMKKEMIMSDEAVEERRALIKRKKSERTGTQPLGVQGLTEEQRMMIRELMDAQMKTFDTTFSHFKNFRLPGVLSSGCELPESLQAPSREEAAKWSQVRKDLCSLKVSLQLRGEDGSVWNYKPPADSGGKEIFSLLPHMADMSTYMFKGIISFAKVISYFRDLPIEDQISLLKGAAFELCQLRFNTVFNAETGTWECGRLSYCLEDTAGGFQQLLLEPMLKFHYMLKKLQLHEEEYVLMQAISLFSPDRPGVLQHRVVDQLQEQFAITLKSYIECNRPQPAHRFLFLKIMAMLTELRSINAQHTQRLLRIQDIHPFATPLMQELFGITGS

Cytochrome P450 2C19 = Cytochrome P450 2C19 (Homo sapiens, UniProt P33261); assay: Inhibition of CYP2C19 expressed in human hepatocytes; assay type: ADME, cell-based, Hepatocyte
Cytochrome P450 2C19, sequence (P33261 whole entry): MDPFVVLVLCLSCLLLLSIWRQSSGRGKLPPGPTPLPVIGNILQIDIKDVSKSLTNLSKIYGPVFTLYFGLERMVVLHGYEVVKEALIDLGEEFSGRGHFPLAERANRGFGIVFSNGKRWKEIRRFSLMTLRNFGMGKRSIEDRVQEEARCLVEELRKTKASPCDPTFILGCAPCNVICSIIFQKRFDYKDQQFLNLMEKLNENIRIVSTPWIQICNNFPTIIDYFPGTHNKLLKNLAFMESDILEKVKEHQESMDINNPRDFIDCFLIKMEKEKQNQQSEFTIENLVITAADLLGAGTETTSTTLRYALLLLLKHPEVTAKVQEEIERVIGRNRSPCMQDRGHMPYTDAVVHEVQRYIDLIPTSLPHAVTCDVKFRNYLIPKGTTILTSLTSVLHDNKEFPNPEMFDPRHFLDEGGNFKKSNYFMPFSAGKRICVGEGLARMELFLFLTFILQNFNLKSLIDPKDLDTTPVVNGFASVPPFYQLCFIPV

Cytochrome P450 3A4, sequence (P08684 whole entry): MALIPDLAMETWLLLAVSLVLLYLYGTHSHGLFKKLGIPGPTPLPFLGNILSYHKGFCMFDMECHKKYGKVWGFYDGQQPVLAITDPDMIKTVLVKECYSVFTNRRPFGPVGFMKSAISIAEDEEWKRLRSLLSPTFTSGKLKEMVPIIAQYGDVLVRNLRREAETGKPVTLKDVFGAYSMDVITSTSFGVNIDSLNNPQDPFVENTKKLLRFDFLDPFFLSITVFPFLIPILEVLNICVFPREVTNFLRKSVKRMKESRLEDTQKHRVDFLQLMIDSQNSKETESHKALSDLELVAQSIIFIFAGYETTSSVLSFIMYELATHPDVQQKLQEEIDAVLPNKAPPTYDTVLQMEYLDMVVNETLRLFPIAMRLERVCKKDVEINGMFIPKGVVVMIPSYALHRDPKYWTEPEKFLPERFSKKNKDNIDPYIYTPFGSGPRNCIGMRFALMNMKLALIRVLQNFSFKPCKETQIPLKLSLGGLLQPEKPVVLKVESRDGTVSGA
Cytochrome P450 2C9, sequence (P11712 whole entry): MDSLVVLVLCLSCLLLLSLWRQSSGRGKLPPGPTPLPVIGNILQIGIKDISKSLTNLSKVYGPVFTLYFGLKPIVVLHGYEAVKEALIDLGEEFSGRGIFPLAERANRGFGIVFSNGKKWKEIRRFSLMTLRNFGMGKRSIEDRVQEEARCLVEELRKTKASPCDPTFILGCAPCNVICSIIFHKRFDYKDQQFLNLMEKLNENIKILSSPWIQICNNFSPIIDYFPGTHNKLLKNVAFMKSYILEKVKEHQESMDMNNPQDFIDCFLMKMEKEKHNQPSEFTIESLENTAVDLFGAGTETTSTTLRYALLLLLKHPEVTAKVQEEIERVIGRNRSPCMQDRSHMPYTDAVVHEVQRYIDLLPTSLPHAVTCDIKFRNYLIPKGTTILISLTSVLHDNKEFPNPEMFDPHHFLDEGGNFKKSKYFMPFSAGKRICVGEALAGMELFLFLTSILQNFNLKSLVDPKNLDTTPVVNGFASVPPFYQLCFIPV
Protein arginine N-methyltransferase 3, sequence (O60678 whole entry): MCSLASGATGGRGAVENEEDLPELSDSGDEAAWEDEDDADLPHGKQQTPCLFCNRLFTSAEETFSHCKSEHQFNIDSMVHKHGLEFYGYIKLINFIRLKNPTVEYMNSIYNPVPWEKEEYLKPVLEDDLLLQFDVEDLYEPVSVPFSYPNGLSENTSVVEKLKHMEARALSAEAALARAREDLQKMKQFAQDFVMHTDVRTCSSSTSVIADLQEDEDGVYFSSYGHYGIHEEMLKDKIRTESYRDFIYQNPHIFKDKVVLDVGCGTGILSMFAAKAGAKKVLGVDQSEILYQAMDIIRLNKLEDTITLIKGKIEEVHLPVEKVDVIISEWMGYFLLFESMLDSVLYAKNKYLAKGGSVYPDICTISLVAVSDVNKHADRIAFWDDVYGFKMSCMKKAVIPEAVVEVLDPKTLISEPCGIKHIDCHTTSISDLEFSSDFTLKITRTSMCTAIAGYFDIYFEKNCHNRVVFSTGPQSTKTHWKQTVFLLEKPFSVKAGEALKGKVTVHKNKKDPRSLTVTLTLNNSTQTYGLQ
Protein arginine N-methyltransferase 1, sequence (Q99873 whole entry): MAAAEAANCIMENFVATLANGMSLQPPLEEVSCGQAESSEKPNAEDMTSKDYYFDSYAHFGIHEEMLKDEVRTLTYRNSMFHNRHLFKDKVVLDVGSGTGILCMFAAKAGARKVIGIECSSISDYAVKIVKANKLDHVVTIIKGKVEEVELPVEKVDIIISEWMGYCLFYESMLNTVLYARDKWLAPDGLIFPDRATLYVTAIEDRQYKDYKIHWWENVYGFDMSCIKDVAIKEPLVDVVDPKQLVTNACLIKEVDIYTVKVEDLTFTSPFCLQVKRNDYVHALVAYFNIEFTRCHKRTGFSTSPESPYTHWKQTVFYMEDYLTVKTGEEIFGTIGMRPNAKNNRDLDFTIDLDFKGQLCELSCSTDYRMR
Cytochrome P450 2D6, sequence (P10635 whole entry): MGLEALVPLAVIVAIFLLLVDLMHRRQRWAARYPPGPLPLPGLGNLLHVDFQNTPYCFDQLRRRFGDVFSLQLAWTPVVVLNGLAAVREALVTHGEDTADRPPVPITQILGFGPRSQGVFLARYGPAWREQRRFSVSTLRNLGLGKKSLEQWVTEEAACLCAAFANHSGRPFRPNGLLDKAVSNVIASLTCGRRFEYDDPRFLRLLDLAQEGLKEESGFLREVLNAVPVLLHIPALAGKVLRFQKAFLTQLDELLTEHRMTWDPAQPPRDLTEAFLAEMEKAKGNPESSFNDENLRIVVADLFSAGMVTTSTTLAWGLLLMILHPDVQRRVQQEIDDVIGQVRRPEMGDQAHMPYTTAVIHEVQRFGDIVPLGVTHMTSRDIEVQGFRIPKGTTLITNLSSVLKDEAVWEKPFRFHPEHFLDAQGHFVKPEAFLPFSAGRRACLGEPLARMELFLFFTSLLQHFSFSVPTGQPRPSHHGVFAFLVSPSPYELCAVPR

C[C@H](N)CNCc1cccc(-n2nc(C(F)(F)F)cc2-c2nnc(-c3ccccc3)o2)c1
IC50 [1]: > 10 µM

C[C@H](N)C(=O)NCc1cccc(-n2nc(C(F)(F)F)cc2C(=O)NCc2ccccc2)c1
Papp [2]: < 1.5 ×10⁻⁶ cm/s

C[C@H](N)C(=O)NCc1cccc(-n2nc(C(F)(F)F)cc2-c2nnc(-c3cccc4ncsc34)o2)c1
IC50 [3]: > 100 µM
Papp [2]: 26.7 ×10⁻⁶ cm/s
IC50 (Cytochrome P450 2C9): > 100 µM
IC50 (Cytochrome P450 2D6): > 100 µM
IC50 [1]: 0.04 µM
IC50 [4]: > 25 µM
Stability [5]: 0.026 nM/min
IC50 [6]: > 25 µM
IC50 (Cytochrome P450 3A4): > 100 µM
EC50 [7]: > 25 µM
IC50 (Cytochrome P450 2C19): > 100 µM

C[C@H](N)C(=O)NCc1cccc(-n2nc(C(F)(F)F)cc2-c2nnc(-c3ccccc3)o2)c1
Papp [2]: 10.6 ×10⁻⁶ cm/s

C[C@H](N)C(=O)N(C)Cc1cccc(-n2nc(C(F)(F)F)cc2-c2nnc(-c3ccccc3)o2)c1
IC50 [1]: > 10 µM

COc1ccccc1Nc1nnc(-c2cc(C(F)(F)F)nn2-c2cccc(CNC(=O)[C@H](C)N)c2)o1
Papp [2]: < 1.5 ×10⁻⁶ cm/s
